glass transition temperature [°C]	SMILES
243.00	*c1ccc(Oc2ccc(-c3nc4cc(Oc5ccc6nc(*)c(-c7ccccc7)nc6c5)ccc4nc3-c3ccccc3)cc2)cc1 (repeat unit)
-20.00	*CC(CC)(CC)COC(=O)c1ccc(-c2ccc(-c3ccc(C(=O)O*)cc3)cc2)cc1 (repeat unit)
177.00	*Oc1ccc(C(C)(c2ccccc2)c2ccc(Oc3ccc(C(=O)C(=O)c4ccc(*)cc4)cc3)cc2)cc1 (repeat unit)
142.50	*CCCCCCN(C(=O)C(F)(F)C(F)(F)C(F)(F)C(=O)N(*)C(C)C)C(C)C (repeat unit)
102.00	*O[Si](*)(C)CCCOc1ccc(N(c2ccc(C)cc2)c2ccc(-c3ccc(N(c4ccccc4)c4ccc(C)cc4)cc3)cc2)cc1 (repeat unit)
121.00	*CC(*)OC(=O)c1ccc(C(C)(C)C)cc1 (repeat unit)
96.00	*CCc1ccc(CCNC(=O)CCCCCCCCCC(=O)N*)cc1 (repeat unit)
293.00	*c1cccc(C(c2ccccc2)(c2cccc(N3C(=O)c4ccc(Oc5ccc6c(c5)C(=O)N(*)C6=O)cc4C3=O)c2)C(F)(F)F)c1 (repeat unit)
10.00	*CC(*)C(=O)OC(F)(C(F)(F)F)C(F)(F)F (repeat unit)
241.00	*c1ccc(Oc2ccc(C3(c4ccc(Oc5ccc(N6C(=O)c7ccc(Oc8ccccc8Oc8ccc9c(c8)C(=O)N(*)C9=O)cc7C6=O)cc5C(F)(F)F)cc4)c4ccccc4-c4ccccc43)cc2)c(C(F)(F)F)c1 (repeat unit)
145.00	*c1ccc(Nc2cccc(Nc3ccc(S(*)(=O)=O)cc3)c2)cc1 (repeat unit)
227.00	*c1cccc(N2C(=O)c3ccc(Oc4ccc(Oc5ccc(Oc6ccc7c(c6)C(=O)N(*)C7=O)cc5)cc4)cc3C2=O)c1 (repeat unit)
214.00	*c1ccc(OC(=O)c2ccc([Si](C)(C)c3ccc(C(=O)Oc4ccc(C5(*)OC(=O)c6ccccc65)cc4)cc3)cc2)cc1 (repeat unit)
178.00	*/C=C/c1ccc(N(CC)Cc2ccccc2CN(CC)c2ccc(/C=C/c3ccc(/C=C(\C#N)S(=O)(=O)/C(C#N)=C/c4ccc(*)s4)s3)cc2)cc1 (repeat unit)
234.00	*c1ccc(Oc2cccc(Oc3ccc(N4C(=O)c5ccc(-c6ccc7c(c6)C(=O)N(*)C7=O)cc5C4=O)cc3)c2)cc1 (repeat unit)
365.00	*c1ccc(C(c2ccc(N3C(=O)c4cc(-c5ccc([Si](C)(C)C)cc5)c(-c5cc6c(cc5-c5ccc([Si](C)(C)C)cc5)C(=O)N(*)C6=O)cc4C3=O)cc2)(C(F)(F)F)C(F)(F)F)cc1 (repeat unit)
43.00	*CCCCCCCCCCCOC(=O)c1ccc2cc(C(=O)O*)ccc2c1 (repeat unit)
34.00	*CCCNC(=O)CCCCC(=O)NCCCO* (repeat unit)
187.00	*Oc1c(C)cc(C(C)(C)c2cc(C)c(OC(=O)c3cccc(C(*)=O)c3)c(C)c2)cc1C (repeat unit)
147.00	*Oc1ccc(C(C)(C)c2ccc(OC(*)=O)c(Cl)c2)cc1Cl (repeat unit)

glass transition temperature [°C]	SMILES
28.00	*OC(=O)C(C)NC(=O)CCCCCCCCCCC(=O)NC(C)C(=O)OC1COC2C(*)COC12 (repeat unit)
80.00	*CC(*)(C)C(=O)OC(COc1cccc2ccccc12)COc1cccc2ccccc12 (repeat unit)
116.00	*CC(*)(C)C(=O)OCCN(CC)c1ccc(/N=N/c2ccc([N+](=O)[O-])c3ccccc23)cc1 (repeat unit)
40.00	*CCOCCOCCOCCOC(=O)c1ccc(-c2ccc(-c3ccc(C(=O)O*)cc3)cc2)cc1 (repeat unit)
346.66	*c1cccc(-c2nc3cc(-c4ccc5c(c4)nc(*)n5C)ccc3[nH]2)c1 (repeat unit)
143.00	*Cc1ccc(C(C)(CC)c2ccc(Cn3c(=O)c4cc5c(=O)n(*)c(=O)c5cc4c3=O)o2)o1 (repeat unit)
223.00	*Oc1ccc(C2(c3ccc(Oc4c(F)c(F)c(C(=O)c5c(F)c(F)c(*)c(F)c5F)c(F)c4F)cc3)c3ccccc3-c3ccccc32)cc1 (repeat unit)
-42.00	*O[Si](C)(C)O[Si](C)(C)O[Si](C)(C)O[Si](C)(c1ccccc1)c1cccc([Si](*)(C)c2ccccc2)c1 (repeat unit)
66.00	*CC(*)c1ccc(C(=O)CCCCC)cc1 (repeat unit)
180.00	*Oc1cc(OC(=O)c2ccc(Oc3ccc(C4(c5ccc(Oc6ccc(C(*)=O)cc6)cc5)CCC(C(C)(C)C)CC4)cc3)cc2)ccc1C12CC3CC(CC(C3)C1)C2 (repeat unit)
145.00	*c1ccc(Oc2cccc(Oc3ccc(N4C(=O)CC(=O)N(*)C4=S)cc3)c2)cc1 (repeat unit)
163.00	*Oc1ccc(C(C)(C)c2ccc(C(C)(C)c3ccc(Oc4ccc(C(=O)Nc5ccc(NC(=O)c6ccc(*)cc6)cc5)cc4)cc3)cc2)cc1 (repeat unit)
380.00	*c1ccc(C2(c3ccc(-c4nnc(*)o4)cc3)OC(=O)c3ccccc32)cc1 (repeat unit)
105.00	*CC(*)(C)C(=O)OCC(O)C1CC(C)(c2ccccc2)C1 (repeat unit)
274.00	*Oc1ccc(NC(=C(C#N)C#N)c2cccc(C(Nc3ccc(Oc4ccc(NC(=O)c5ccc(C(=O)Nc6ccc(*)cc6)cc5)cc4)cc3)=C(C#N)C#N)c2)cc1 (repeat unit)
252.00	*c1ccc(Cc2ccc(-n3nc(-c4ccccc4)cc3-c3ccc(-c4cc(-c5ccccc5)nn4*)cc3)cc2)cc1 (repeat unit)
98.00	*SSc1ccc(/N=C/Nc2ccc(*)cc2)cc1 (repeat unit)
285.50	*C(=O)c1ccc2c(c1)C(=O)N(c1ccc(C(=O)c3ccc(Cc4ccc(C(=O)c5ccc(N6C(=O)c7ccc(*)cc7C6=O)cc5)cc4)cc3)cc1)C2=O (repeat unit)
162.00	*Oc1ccc(Oc2ccc(/C(=N/c3ccc(Oc4ccc(/N=C(\c5ccccc5)c5ccc(*)cc5)cc4)cc3)c3ccccc3)cc2)cc1 (repeat unit)

SMILES	glass transition temperature [°C]
*CCCCCCC(Cl)C(*)Cl (repeat unit)	-18.00
*CC(*)OC(=O)c1cccc(OC)c1 (repeat unit)	44.00
*/C(CC)=C(/*)c1ccccc1 (repeat unit)	200.00
*C(*)O (repeat unit)	134.00
*CC(*)(CC(=O)OC)C(=O)OC (repeat unit)	95.00
*/C=C/C1CC(*)C(C2CC=CCC2)C1 (repeat unit)	105.00
*/C=C/C1CCC(*)C1 (repeat unit)	31.00
*CC(*)C(=O)NC(C)(C)CC(C)=O (repeat unit)	72.50
*OP(=O)(Oc1ccc(Cl)cc1)Oc1c(Cl)c(Cl)c(*)c(Cl)c1Cl (repeat unit)	119.00
*Oc1c(C(C)C)cc(*)cc1C(C)C (repeat unit)	152.40
